# Read-outs that look alike come from different tables or passages of the source. Numbered stars: 1 amine (or outer) side, 2 acyl side, 3 side chain; on linkers, the order of the positions; unused ones are H or OH. Square brackets hold non-standard residues; d marks the D form. Side chains are listed from the residue outwards. Peptide text beside a SMILES is read from it. * marks the point of attachment. γGlu = O=C(O)[C@H](CCC(=O)[*:2])N[*:1]; Palmitoyl = CCCCCCCCCCCCCCCC(=O)*; αMeF = C[C@](N)(Cc1ccccc1)C(=O)O; αMeK = C[C@](N)(CCCCN)C(=O)O; αMeS = C[C@](N)(CO)C(=O)O; Aib = CC(C)(N)C(=O)O
# How the values were obtained:
# Type in all cases: cell-based
# [1] = target: T1, human glucose-dependent insulinotropic peptide receptor (GIPR) (Homo sapiens, UniProt P48546); test: cAMP assay, human GIPR cells; details: cAMP assay
# T1 construct: expressed in transfected cells
# T1 sequence (P48546 22-466): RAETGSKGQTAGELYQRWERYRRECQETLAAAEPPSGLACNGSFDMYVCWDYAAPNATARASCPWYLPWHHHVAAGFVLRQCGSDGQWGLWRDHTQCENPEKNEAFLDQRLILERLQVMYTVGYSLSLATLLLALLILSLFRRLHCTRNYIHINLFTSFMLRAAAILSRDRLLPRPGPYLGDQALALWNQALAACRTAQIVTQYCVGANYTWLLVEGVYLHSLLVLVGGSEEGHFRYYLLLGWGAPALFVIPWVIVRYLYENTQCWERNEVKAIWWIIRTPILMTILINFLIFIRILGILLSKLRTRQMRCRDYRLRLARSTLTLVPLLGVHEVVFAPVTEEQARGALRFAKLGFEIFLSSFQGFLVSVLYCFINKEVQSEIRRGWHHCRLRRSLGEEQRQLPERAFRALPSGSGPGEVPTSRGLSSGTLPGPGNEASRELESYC
# In short: (§1)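 Peptide-stimulated cAMP measured by two-step HTRF after a 30 min room-temperature incubation with receptor-expressing cells (hGLP-1R, hGIPR at 1×10^5 cells/ml; hGCGR at 2×10^5 cells/ml). Duplicate dilutions; EC50 from 4-parameter logistic fit of % Delta F.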
# [2] = target: T2, human GLP-1 receptor (GLP-1R) (Homo sapiens, UniProt P43220); test: cAMP assay, human GLP-1R cells
# T2 construct: expressed in transfected cells
# T2 sequence (P43220 24-463): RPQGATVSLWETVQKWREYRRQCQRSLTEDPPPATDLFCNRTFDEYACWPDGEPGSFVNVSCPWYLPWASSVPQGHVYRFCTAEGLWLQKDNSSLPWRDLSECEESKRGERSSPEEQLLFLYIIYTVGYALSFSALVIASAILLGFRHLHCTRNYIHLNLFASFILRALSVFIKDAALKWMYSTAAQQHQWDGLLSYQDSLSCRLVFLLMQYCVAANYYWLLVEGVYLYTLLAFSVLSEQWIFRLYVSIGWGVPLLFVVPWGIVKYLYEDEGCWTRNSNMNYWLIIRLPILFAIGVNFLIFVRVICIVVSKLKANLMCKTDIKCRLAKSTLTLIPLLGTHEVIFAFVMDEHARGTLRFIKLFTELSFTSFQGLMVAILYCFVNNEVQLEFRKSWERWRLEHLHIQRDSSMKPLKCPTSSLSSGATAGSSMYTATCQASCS
# In short: as §1
# [3] = target: T3, human glucagon receptor (GCGR) (Homo sapiens, UniProt P47871); test: cAMP assay, human GCGR cells; details: cAMP assay
# T3 construct: expressed in transfected cells
# T3 sequence (P47871 26-477): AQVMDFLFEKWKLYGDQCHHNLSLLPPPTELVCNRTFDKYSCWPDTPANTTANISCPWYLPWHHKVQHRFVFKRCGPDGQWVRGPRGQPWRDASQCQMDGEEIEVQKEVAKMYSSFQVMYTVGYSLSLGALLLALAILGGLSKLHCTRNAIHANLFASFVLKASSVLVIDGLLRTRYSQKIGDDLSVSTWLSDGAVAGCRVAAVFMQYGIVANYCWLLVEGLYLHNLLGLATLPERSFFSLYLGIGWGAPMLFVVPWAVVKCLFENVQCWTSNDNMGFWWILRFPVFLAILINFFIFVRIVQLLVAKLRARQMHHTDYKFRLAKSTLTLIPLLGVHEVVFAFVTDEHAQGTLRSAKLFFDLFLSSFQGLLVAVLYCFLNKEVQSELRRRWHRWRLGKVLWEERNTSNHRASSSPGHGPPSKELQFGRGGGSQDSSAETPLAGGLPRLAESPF
# In short: as §1
# [4] = first determination (n1), read-out: Primary assay EC50 GIP-R (n1)
# [5] = second determination (n2), read-out: Primary assay EC50 GIP-R (n2)
# [6] = cAMP assay, first determination (n1), read-out: Primary assay EC50 GLP-1R n1
# [7] = cAMP assay, second determination (n2), read-out: Primary assay EC50 GLP-1R n2
# [8] = mean of n1 and n2, read-out: Mean pM GLP-1R
# [9] = first determination (n1), read-out: Primary assay EC50 Gluc-R (n1)
# [10] = second determination (n2), read-out: Primary assay EC50 Gluc-R (n2)
smiles,measurement,setting,value
CCCCCCCCCCCCCCCC(=O)N[C@@H](CCC(=O)NCCCC[C@H](NC(=O)[C@H](CC(C)C)NC(=O)[C@](C)(Cc1ccccc1)NC(=O)[C@H](CO)NC(=O)[C@](C)(CO)NC(=O)[C@@H](NC(=O)[C@H](CC(=O)O)NC(=O)[C@H](CO)NC(=O)[C@@H](NC(=O)[C@](C)(Cc1ccccc1)NC(=O)[C@H](CO)NC(=O)CNC(=O)[C@H](CCC(=O)O)NC(=O)C(C)(C)NC(=O)[C@@H](N)Cc1c[nH]cn1)[C@@H](C)O)C(C)C)C(=O)NCC(=O)N[C@@H](CCC(=O)O)C(=O)N[C@@H](C)C(=O)N[C@@H](C)C(=O)N[C@@](C)(CCCCN)C(=O)N[C@@H](CCC(=O)O)C(=O)N[C@@](C)(Cc1ccccc1)C(=O)N[C@H](C(=O)N[C@@H](C)C(=O)N[C@@](C)(Cc1ccccc1)C(=O)N[C@H](C(=O)N[C@H](C(=O)N[C@@](C)(CCCCN)C(=O)NCC(=O)NCC(N)=O)C(C)C)C(C)C)[C@@H](C)CC)C(=O)O [compound 85] (H-H[Aib]EGS[αMeF]TSDV[αMeS]S[αMeF]LK([γGlu-Palmitoyl])GEAA[αMeK]E[αMeF]IA[αMeF]VV[αMeK]GG-NH2; N-terminus assumed),EC50,[1]; [4],≥ 28 nM
same,EC50,[1]; [5],≥ 28 nM
same,EC50,[2]; [6],66 pM
same,EC50,[2]; [7],140 pM
same,EC50,[2]; [8],101 pM
same,EC50,[3]; [9],≥ 28 nM
same,EC50,[3]; [10],≥ 28 nM
CCCCCCCCCCCCCCCC(=O)N[C@@H](CCC(=O)NCCCC[C@H](NC(=O)[C@@H](NC(=O)[C@H](CC(=O)O)NC(=O)[C@H](CO)NC(=O)[C@@H](NC(=O)[C@](C)(Cc1ccccc1)NC(=O)[C@H](CO)NC(=O)CNC(=O)[C@H](CCC(=O)O)NC(=O)C(C)(C)NC(=O)[C@@H](N)Cc1c[nH]cn1)[C@@H](C)O)C(C)C)C(=O)N[C@@H](CO)C(=O)N[C@@](C)(Cc1ccccc1)C(=O)N[C@@H](CC(C)C)C(=O)N[C@@H](CCC(=O)O)C(=O)NCC(=O)N[C@@H](CCC(=O)O)C(=O)N[C@@H](C)C(=O)N[C@@H](C)C(=O)N[C@@](C)(CCCCN)C(=O)N[C@@H](CCC(=O)O)C(=O)N[C@@](C)(Cc1ccccc1)C(=O)N[C@H](C(=O)N[C@@H](C)C(=O)N[C@@](C)(Cc1ccccc1)C(=O)N[C@H](C(=O)N[C@H](C(=O)N[C@@](C)(CCCCN)C(=O)NCC(=O)NCC(N)=O)C(C)C)C(C)C)[C@@H](C)CC)C(=O)O [compound 89],EC50,[1]; [4],≥ 28 nM
same,EC50,[1]; [5],≥ 28 nM
same,EC50,[2]; [6],450 pM
same,EC50,[2]; [7],650 pM
same,EC50,[2]; [8],548 pM
same,EC50,[3]; [9],≥ 28 nM
same,EC50,[3]; [10],≥ 28 nM
CCCCCCCCCCCCCCCC(=O)N[C@@H](CCC(=O)NCCCC[C@H](NC(=O)[C@@H](NC(=O)[C@](C)(Cc1ccccc1)NC(=O)[C@H](CO)NC(=O)CNC(=O)[C@H](CCC(=O)O)NC(=O)C(C)(C)NC(=O)[C@@H](N)Cc1c[nH]cn1)[C@@H](C)O)C(=O)N[C@@H](CC(=O)O)C(=O)N[C@H](C(=O)N[C@@](C)(CO)C(=O)N[C@@H](CO)C(=O)N[C@@](C)(Cc1ccccc1)C(=O)N[C@@H](CC(C)C)C(=O)N[C@@H](CCC(=O)O)C(=O)NCC(=O)N[C@@H](CCC(=O)O)C(=O)N[C@@H](C)C(=O)N[C@@H](C)C(=O)N[C@@](C)(CCCCN)C(=O)N[C@@H](CCC(=O)O)C(=O)N[C@@](C)(Cc1ccccc1)C(=O)N[C@H](C(=O)N[C@@H](C)C(=O)N[C@@](C)(Cc1ccccc1)C(=O)N[C@H](C(=O)N[C@H](C(=O)N[C@@](C)(CCCCN)C(=O)NCC(=O)NCC(N)=O)C(C)C)C(C)C)[C@@H](C)CC)C(C)C)C(=O)O [compound 92] (H-H[Aib]EGS[αMeF]TK([γGlu-Palmitoyl])DV[αMeS]S[αMeF]LEGEAA[αMeK]E[αMeF]IA[αMeF]VV[αMeK]GG-NH2; N-terminus assumed),EC50,[1]; [4],≥ 28 nM
same,EC50,[1]; [5],≥ 28 nM
same,EC50,[2]; [6],450 pM
same,EC50,[2]; [7],390 pM
same,EC50,[2]; [8],423 pM
same,EC50,[3]; [9],≥ 28 nM
same,EC50,[3]; [10],≥ 28 nM
CCCCCCCCCCCCCCCC(=O)N[C@@H](CCC(=O)NCCCC[C@H](NC(=O)[C@H](CO)NC(=O)CNC(=O)[C@H](CCC(=O)O)NC(=O)C(C)(C)NC(=O)[C@@H](N)Cc1c[nH]cn1)C(=O)N[C@H](C(=O)N[C@@H](CO)C(=O)N[C@@H](CC(=O)O)C(=O)N[C@H](C(=O)N[C@@](C)(CO)C(=O)N[C@@H](CO)C(=O)N[C@@](C)(Cc1ccccc1)C(=O)N[C@@H](CC(C)C)C(=O)N[C@@H](CCC(=O)O)C(=O)NCC(=O)N[C@@H](CCC(=O)O)C(=O)N[C@@H](C)C(=O)N[C@@H](C)C(=O)N[C@@](C)(CCCCN)C(=O)N[C@@H](CCC(=O)O)C(=O)N[C@@](C)(Cc1ccccc1)C(=O)N[C@H](C(=O)N[C@@H](C)C(=O)N[C@@](C)(Cc1ccccc1)C(=O)N[C@H](C(=O)N[C@H](C(=O)N[C@@](C)(CCCCN)C(=O)NCC(=O)NCC(N)=O)C(C)C)C(C)C)[C@@H](C)CC)C(C)C)[C@@H](C)O)C(=O)O [compound 94],EC50,[1]; [4],≥ 28 nM
same,EC50,[1]; [5],≥ 28 nM
same,EC50,[2]; [6],140 pM
same,EC50,[2]; [7],320 pM
same,EC50,[2]; [8],228 pM
same,EC50,[3]; [9],≥ 28 nM
same,EC50,[3]; [10],≥ 28 nM
CCCCCCCCCCCCCCCC(=O)N[C@@H](CCC(=O)NCCCC[C@H](NC(=O)CNC(=O)[C@H](CCC(=O)O)NC(=O)C(C)(C)NC(=O)[C@@H](N)Cc1c[nH]cn1)C(=O)N[C@@](C)(Cc1ccccc1)C(=O)N[C@H](C(=O)N[C@@H](CO)C(=O)N[C@@H](CC(=O)O)C(=O)N[C@H](C(=O)N[C@@](C)(CO)C(=O)N[C@@H](CO)C(=O)N[C@@](C)(Cc1ccccc1)C(=O)N[C@@H](CC(C)C)C(=O)N[C@@H](CCC(=O)O)C(=O)NCC(=O)N[C@@H](CCC(=O)O)C(=O)N[C@@H](C)C(=O)N[C@@H](C)C(=O)N[C@@](C)(CCCCN)C(=O)N[C@@H](CCC(=O)O)C(=O)N[C@@](C)(Cc1ccccc1)C(=O)N[C@H](C(=O)N[C@@H](C)C(=O)N[C@@](C)(Cc1ccccc1)C(=O)N[C@H](C(=O)N[C@H](C(=O)N[C@@](C)(CCCCN)C(=O)NCC(=O)NCC(N)=O)C(C)C)C(C)C)[C@@H](C)CC)C(C)C)[C@@H](C)O)C(=O)O [compound 95] (H-H[Aib]EGK([γGlu-Palmitoyl])[αMeF]TSDV[αMeS]S[αMeF]LEGEAA[αMeK]E[αMeF]IA[αMeF]VV[αMeK]GG-NH2; N-terminus assumed),EC50,[1]; [4],≥ 28 nM
same,EC50,[1]; [5],≥ 28 nM
same,EC50,[2]; [6],260 pM
same,EC50,[2]; [7],190 pM
same,EC50,[2]; [8],224 pM
same,EC50,[3]; [9],≥ 28 nM
same,EC50,[3]; [10],≥ 28 nM
CCCCCCCCCCCCCCCC(=O)N[C@@H](CCC(=O)NCCCC[C@H](NC(=O)[C@H](CCC(=O)O)NC(=O)C(C)(C)NC(=O)[C@@H](N)Cc1c[nH]cn1)C(=O)N[C@@H](CO)C(=O)N[C@@](C)(Cc1ccccc1)C(=O)N[C@H](C(=O)N[C@@H](CO)C(=O)N[C@@H](CC(=O)O)C(=O)N[C@H](C(=O)N[C@@](C)(CO)C(=O)N[C@@H](CO)C(=O)N[C@@](C)(Cc1ccccc1)C(=O)N[C@@H](CC(C)C)C(=O)N[C@@H](CCC(=O)O)C(=O)NCC(=O)N[C@@H](CCC(=O)O)C(=O)N[C@@H](C)C(=O)N[C@@H](C)C(=O)N[C@@](C)(CCCCN)C(=O)N[C@@H](CCC(=O)O)C(=O)N[C@@](C)(Cc1ccccc1)C(=O)N[C@H](C(=O)N[C@@H](C)C(=O)N[C@@](C)(Cc1ccccc1)C(=O)N[C@H](C(=O)N[C@H](C(=O)N[C@@](C)(CCCCN)C(=O)NCC(=O)NCC(N)=O)C(C)C)C(C)C)[C@@H](C)CC)C(C)C)[C@@H](C)O)C(=O)O [compound 96] (H-H[Aib]EK([γGlu-Palmitoyl])S[αMeF]TSDV[αMeS]S[αMeF]LEGEAA[αMeK]E[αMeF]IA[αMeF]VV[αMeK]GG-NH2; N-terminus assumed),EC50,[1]; [4],≥ 27 nM
same,EC50,[1]; [5],≥ 27 nM
same,EC50,[2]; [6],920 pM
same,EC50,[2]; [7],570 pM
same,EC50,[2]; [8],746 pM
same,EC50,[3]; [9],≥ 27 nM
same,EC50,[3]; [10],≥ 27 nM
CCCCCCCCCCCCCCCC(=O)N[C@@H](CCC(=O)NCCCC[C@H](NC(=O)C(C)(C)NC(=O)[C@@H](N)Cc1c[nH]cn1)C(=O)NCC(=O)N[C@@H](CO)C(=O)N[C@@](C)(Cc1ccccc1)C(=O)N[C@H](C(=O)N[C@@H](CO)C(=O)N[C@@H](CC(=O)O)C(=O)N[C@H](C(=O)N[C@@](C)(CO)C(=O)N[C@@H](CO)C(=O)N[C@@](C)(Cc1ccccc1)C(=O)N[C@@H](CC(C)C)C(=O)N[C@@H](CCC(=O)O)C(=O)NCC(=O)N[C@@H](CCC(=O)O)C(=O)N[C@@H](C)C(=O)N[C@@H](C)C(=O)N[C@@](C)(CCCCN)C(=O)N[C@@H](CCC(=O)O)C(=O)N[C@@](C)(Cc1ccccc1)C(=O)N[C@H](C(=O)N[C@@H](C)C(=O)N[C@@](C)(Cc1ccccc1)C(=O)N[C@H](C(=O)N[C@H](C(=O)N[C@@](C)(CCCCN)C(=O)NCC(=O)NCC(N)=O)C(C)C)C(C)C)[C@@H](C)CC)C(C)C)[C@@H](C)O)C(=O)O [compound 97] (H-H[Aib]K([γGlu-Palmitoyl])GS[αMeF]TSDV[αMeS]S[αMeF]LEGEAA[αMeK]E[αMeF]IA[αMeF]VV[αMeK]GG-NH2; N-terminus assumed),EC50,[1]; [4],≥ 28 nM
same,EC50,[1]; [5],≥ 28 nM
same,EC50,[2]; [6],≥ 28000 pM
same,EC50,[2]; [7],≥ 28000 pM
same,EC50,[2]; [8],≥ 27800 pM
same,EC50,[3]; [9],≥ 28 nM
same,EC50,[3]; [10],≥ 28 nM
